Entries after “also recorded” stand apart in the source; their conditions may differ. Read-outs that look alike come from different tables or passages of the source.
Experiments:
adult, female mosquitoes = assay: Topical application on adult female mosquitoes (24-h mortality, 1-h knockdown); assay type: in vivo, mosquito; details: for ED50: read-out: KD50 (ug/g mosquito); for LD50: read-out: LD50 (ug/g mosquito); for insecticidal properties compared with natural pogostone, natural pyrethrins or terpenoids: words, refers to Table 1
adult female mosquitoes = assay: whole plant or invertebrate; details: for LD50 / mortality at 0.5 % / mortality at 1.5 %: 24 h; for LD50: read-out: 24-hour Mortality LD50 (μg/g mosquito); for Percent Knockdown at 1 Hour / Percent Mortality: mosquitoes; for Percent Knockdown at 1 Hour: 0.5% solutions; for Percent Mortality: 24 hours; for ranking in knockdown and mortality screenings: words; for pest or weed control at 0.5 % / pest or weed control at 1.5 % / mortality at 0.5 % / mortality at 1.5 %: Culicidae; for pest or weed control at 0.5 % / pest or weed control at 1.5 %: 1 h; for pest or weed control at 0.5 %: read-out: Knockdown at 0.5%; for pest or weed control at 1.5 %: read-out: Knockdown at 1.5%; for mortality at 0.5 %: read-out: Mortality at 0.5%; for mortality at 1.5 %: read-out: Mortality at 1.5%
Experimental: The first group of DHAA-based derivatives that were tested included Formula A2, Formula B3, Formula C3, and Formula D3. A solution of 0.5% or 1.5% of each of these compounds was applied to the mosquitoes, as described above. […] Acetone was used as a control.

house flies = assay: Knockdown and mortality of DHAA-based derivatives on house flies; assay type: in vivo, house fly
From the text: Accordingly, further derivatives with structures similar to Formula C3 were synthesized and tested for knockdown potential and mortality in house flies and mosquitoes using an experimental design similar to the one described above. These compounds include Formula C5, Formula C6, Formula C7, Formula C8, Formula C9, and Formula C10.

[1] = Mosquito Knockdown Properties (1 hour), topical application
[2] = Mosquito Toxicity (24 hours), topical application to pronotum

Structure (SMILES): Cc1ccc(C(C)C)cc1O [Carvacrol, reference compound]
- ED50 (adult, female mosquitoes; topical, 1 h): 2000 mg/kg
- LD50 (adult, female mosquitoes; topical, 24 h): 3400 mg/kg
- LD50 (adult female mosquitoes; topical): 3400 mg/kg

Structure (SMILES): CCC(=O)c1c(O)cc(C)oc1=O [Formula 7]
- ED50 (adult, female mosquitoes; [1]): > 1500 mg/kg
- LD50 (adult, female mosquitoes; [2]): > 1500 mg/kg

Structure (SMILES): CCOC(=O)/C(O)=C/C(=O)c1c(O)cc(C)oc1=O [Formula 8]
- ED50 (adult, female mosquitoes; [1]): > 1500 mg/kg
- LD50 (adult, female mosquitoes; [2]): > 1500 mg/kg

Structure (SMILES): CC(C)CCC(=O)c1c(O)cc(-c2ccccc2)oc1=O [Formula 9]
- ED50 (adult, female mosquitoes; [1]): > 1500 mg/kg
- LD50 (adult, female mosquitoes; [2]): > 1500 mg/kg

Structure (SMILES): CC(C)CCC(=O)c1c(O)cc(C(C)(C)C)oc1=O [Formula 11]
- ED50 (adult, female mosquitoes; [1]): > 1500 mg/kg
- LD50 (adult, female mosquitoes; [2]): > 1500 mg/kg

Structure (SMILES): CC(=O)C1=Cc2ccccc2OC1 [Formula 16]
- LD50 (adult, female mosquitoes; topical, 24 h): > 1500 mg/kg

Structure (SMILES): CC(C)CCC(=O)C1=Cc2ccccc2OC1 [Formula 17]
- ED50 (adult, female mosquitoes; topical, 1 h): > 1500 mg/kg
- LD50 (adult, female mosquitoes; topical, 24 h): > 1500 mg/kg

Structure (SMILES): CCCCCCCCCC(=O)c1c(O)c2ccccc2oc1=O [Formula 18]
- ED50 (adult, female mosquitoes; topical, 1 h): > 1500 mg/kg
- LD50 (adult, female mosquitoes; topical, 24 h): > 1500 mg/kg

Structure (SMILES): CCCCCCCCCC(=O)c1c(O)c2ccccc2n(C)c1=O [Formula 20]
- LD50 (adult, female mosquitoes; topical, 24 h): > 1500 mg/kg

Structure (SMILES): Cc1ccc2oc(=O)c(C(=O)CCC(C)C)c(O)c2c1 [Formula 21]
- ED50 (adult, female mosquitoes; topical, 1 h): > 1500 mg/kg
- LD50 (adult, female mosquitoes; topical, 24 h): 534 mg/kg

Structure (SMILES): C=CCCC(=O)c1cc2ccccc2oc1=O [Formula 22]
- LD50 (adult, female mosquitoes; topical, 24 h): > 1500 mg/kg

Structure (SMILES): CCCCCCCC(=O)c1c(O)c2ccccc2oc1=O [Formula 25]
- ED50 (adult, female mosquitoes; topical, 1 h): > 1500 mg/kg
- LD50 (adult, female mosquitoes; topical, 24 h): > 1500 mg/kg

Structure (SMILES): O=C(c1c(O)c2ccccc2oc1=O)C1CCC1 [Formula 27]
- ED50 (adult, female mosquitoes; topical, 1 h): > 1500 mg/kg
- LD50 (adult, female mosquitoes; topical, 24 h): 28.8 mg/kg
- insecticidal properties compared with natural pogostone, natural pyrethrins or terpenoids (adult, female mosquitoes): possessed better insecticidal properties at least as well as natural pyrethrins
- 1-hour Knockdown EC50 (μg/g mosquito) (adult female mosquitoes; in vivo): >1500 μg/g mosquito
- LD50 (adult female mosquitoes; topical): 29 mg/kg

Structure (SMILES): CC(C)C(=O)c1c(O)c2cc(Cl)ccc2oc1=O [Formula 34]
- ED50 (adult, female mosquitoes; [1]): > 1500 mg/kg
- LD50 (adult, female mosquitoes; [2]): 111 mg/kg
- insecticidal properties compared with natural pogostone, natural pyrethrins or terpenoids (adult, female mosquitoes): possessed better insecticidal properties than natural pogostone

Structure (SMILES): Cc1cc(O)c(C(=O)Nc2ccccc2)c(=O)o1 [Formula A3]
- Percent Knockdown at 1 Hour (adult female mosquitoes): 4%
- Percent Mortality (adult female mosquitoes; at 0.5%): 5%
- Percent Mortality (adult female mosquitoes; at 1.5%): 19%

Structure (SMILES): CCCCC(CC)CNC(=O)c1c(O)cc(C)oc1=O (stereo not drawn) [Formula B3]
- Percent Knockdown at 1 Hour (adult female mosquitoes): 2%
- Percent Mortality (adult female mosquitoes; at 0.5%): 9%
- Percent Mortality (adult female mosquitoes; at 1.5%): 16%

Structure (SMILES): Cc1cc(O)c(C(=O)COC(C)C)c(=O)o1 [Formula C3]
- Percent Knockdown at 1 Hour (adult female mosquitoes): 98%
- Percent Mortality (adult female mosquitoes; at 0.5%): 89%
- Percent Mortality (adult female mosquitoes; at 1.5%): 88%
- LD50 (adult female mosquitoes; topical): 183 mg/kg
- ranking in knockdown and mortality screenings (adult female mosquitoes): performed the best in terms of highest percent knockdown and mortality; also recorded: performed the best in the initial knockdown and mortality screenings

Structure (SMILES): Cc1cc(O)c(C(=O)CSCC(=O)O)c(=O)o1 [Formula C6]
- House Fly Knockdown at 0.5% concentration (house flies): 2.5%
- House Fly Mortality at 0.5% concentration (house flies): 10%
- House Fly Knockdown at 1.5% concentration (house flies): 7%
- House Fly Mortality at 1.5% concentration (house flies): 6%
- Mosquito Knockdown at 0.5% concentration (adult female mosquitoes): 27%
- Mosquito Mortality at 0.5% concentration (adult female mosquitoes): 43%
- Mosquito Knockdown at 1.5% concentration (adult female mosquitoes): 18%
- Mosquito Mortality at 1.5% concentration (adult female mosquitoes): 15%

Structure (SMILES): Cc1cc(O)c(C(=O)COCc2ccccc2)c(=O)o1 [Formula C7]
- House Fly Knockdown at 0.5% concentration (house flies): 2.5%
- House Fly Mortality at 0.5% concentration (house flies): 13%
- House Fly Knockdown at 1.5% concentration (house flies): 1%
- House Fly Mortality at 1.5% concentration (house flies): 9%
- Mosquito Knockdown at 0.5% concentration (adult female mosquitoes): 10%
- Mosquito Mortality at 0.5% concentration (adult female mosquitoes): 23%
- Mosquito Knockdown at 1.5% concentration (adult female mosquitoes): 20%
- Mosquito Mortality at 1.5% concentration (adult female mosquitoes): 15%

Structure (SMILES): CCOCC(=O)c1c(O)cc(C)oc1=O [Formula C8]
- House Fly Knockdown at 0.5% concentration (house flies): 0%
- House Fly Mortality at 0.5% concentration (house flies): 3%
- House Fly Knockdown at 1.5% concentration (house flies): 2%
- House Fly Mortality at 1.5% concentration (house flies): 13%
- Mosquito Knockdown at 0.5% concentration (adult female mosquitoes): 43%
- Mosquito Mortality at 0.5% concentration (adult female mosquitoes): 73%
- Mosquito Knockdown at 1.5% concentration (adult female mosquitoes): 80%
- Mosquito Mortality at 1.5% concentration (adult female mosquitoes): 80%
- 1-hour Knockdown EC50 (μg/g mosquito) (adult female mosquitoes; mosquito, topical, 1 hour): 661 μg/g mosquito
- LD50 (adult female mosquitoes; topical): 256 mg/kg
- ranking in knockdown and mortality screenings (adult female mosquitoes): performed the best in the initial knockdown and mortality screenings

Structure (SMILES): COCC(=O)c1c(O)cc(C)oc1=O [Formula C9]
- House Fly Knockdown at 0.5% concentration (house flies): 0%
- House Fly Mortality at 0.5% concentration (house flies): 5%
- House Fly Knockdown at 1.5% concentration (house flies): 1%
- House Fly Mortality at 1.5% concentration (house flies): 6%
- Mosquito Knockdown at 0.5% concentration (adult female mosquitoes): 37%
- Mosquito Mortality at 0.5% concentration (adult female mosquitoes): 73%
- Mosquito Knockdown at 1.5% concentration (adult female mosquitoes): 53%
- Mosquito Mortality at 1.5% concentration (adult female mosquitoes): 70%

Structure (SMILES): Cc1cc(O)c(C(=O)COCC(=O)O)c(=O)o1 [Formula C14]
- pest or weed control at 0.5 % (adult female mosquitoes; topical): 7%
- pest or weed control at 1.5 % (adult female mosquitoes; topical): 0%
- mortality at 0.5 % (adult female mosquitoes; topical): 13%
- mortality at 1.5 % (adult female mosquitoes; topical): 40%

Structure (SMILES): Cc1cc(O)c(C(=O)CC(O)C2CCCCC2)c(=O)o1 (stereo not drawn) [Formula C15]
- pest or weed control at 0.5 % (adult female mosquitoes; topical): 23%
- pest or weed control at 1.5 % (adult female mosquitoes; topical): 50%
- mortality at 0.5 % (adult female mosquitoes; topical): 33%
- mortality at 1.5 % (adult female mosquitoes; topical): 63%
- ranking in knockdown and mortality screenings (adult female mosquitoes): appear to be the most potent insecticidal compounds

Structure (SMILES): Cc1cc2c(c(=O)o1)C(=O)CC(C(C)C)O2 (stereo not drawn) [Formula C16]
- pest or weed control at 0.5 % (adult female mosquitoes; topical): 0%
- pest or weed control at 1.5 % (adult female mosquitoes; topical): 7%
- mortality at 0.5 % (adult female mosquitoes; topical): 3%
- mortality at 1.5 % (adult female mosquitoes; topical): 3%

Structure (SMILES): CC(=O)CCC(=O)c1c(O)cc(C)oc1=O [Formula C17]
- pest or weed control at 0.5 % (adult female mosquitoes; topical): 27%
- pest or weed control at 1.5 % (adult female mosquitoes; topical): 13%
- mortality at 0.5 % (adult female mosquitoes; topical): 47%
- mortality at 1.5 % (adult female mosquitoes; topical): 7%

Structure (SMILES): Cc1cc(O)c(C(=O)CCC=O)c(=O)o1 [Formula C18]
- pest or weed control at 0.5 % (adult female mosquitoes; topical): 3%
- pest or weed control at 1.5 % (adult female mosquitoes; topical): 0%
- mortality at 0.5 % (adult female mosquitoes; topical): 3%
- mortality at 1.5 % (adult female mosquitoes; topical): 7%

Structure (SMILES): Cc1cc(O)c(C(=O)CCC(O)CBr)c(=O)o1 (stereo not drawn) [Formula C20]
- pest or weed control at 0.5 % (adult female mosquitoes; topical): 17%
- pest or weed control at 1.5 % (adult female mosquitoes; topical): 10%
- mortality at 0.5 % (adult female mosquitoes; topical): 10%
- mortality at 1.5 % (adult female mosquitoes; topical): 20%

Structure (SMILES): Cc1cc(O)c(C(=O)/C=C/C(C)(C)C)c(=O)o1 [Formula C21]
- pest or weed control at 0.5 % (adult female mosquitoes; topical): 3%
- pest or weed control at 1.5 % (adult female mosquitoes; topical): 7%
- mortality at 0.5 % (adult female mosquitoes; topical): 0%
- mortality at 1.5 % (adult female mosquitoes; topical): 0%

Structure (SMILES): Cc1cc2occ(CC(C)C)c(=O)c2c(=O)o1 [Formula C22]
- pest or weed control at 0.5 % (adult female mosquitoes; topical): 10%
- pest or weed control at 1.5 % (adult female mosquitoes; topical): 10%
- mortality at 0.5 % (adult female mosquitoes; topical): 7%
- mortality at 1.5 % (adult female mosquitoes; topical): 13%

Structure (SMILES): CC(C)CCC(=O)C1C(=O)N(C)C(=O)N(C)C1=O [Formula C24]
- pest or weed control at 0.5 % (adult female mosquitoes; topical): 93%
- pest or weed control at 1.5 % (adult female mosquitoes; topical): 100%
- mortality at 0.5 % (adult female mosquitoes; topical): 97%
- mortality at 1.5 % (adult female mosquitoes; topical): 97%
- ranking in knockdown and mortality screenings (adult female mosquitoes): appear to be the most potent insecticidal compounds

Structure (SMILES): CC(C)C(O)CC(=O)c1c(O)c2ccccc2oc1=O (stereo not drawn) [Formula C25]
- pest or weed control at 0.5 % (adult female mosquitoes; topical): 93%
- pest or weed control at 1.5 % (adult female mosquitoes; topical): 100%
- mortality at 0.5 % (adult female mosquitoes; topical): 100%
- mortality at 1.5 % (adult female mosquitoes; topical): 100%
- ranking in knockdown and mortality screenings (adult female mosquitoes): appear to be the most potent insecticidal compounds

Structure (SMILES): C=CCCC(=O)c1c(O)cc(C)oc1=O [Formula C26]
- pest or weed control at 0.5 % (adult female mosquitoes; topical): 100%
- pest or weed control at 1.5 % (adult female mosquitoes; topical): 97%
- mortality at 0.5 % (adult female mosquitoes; topical): 100%
- mortality at 1.5 % (adult female mosquitoes; topical): 100%
- ranking in knockdown and mortality screenings (adult female mosquitoes): appear to be the most potent insecticidal compounds

Structure (SMILES): CC(=O)c1c(O)c2ccccc2oc1=O [Formula C27]
- pest or weed control at 0.5 % (adult female mosquitoes; topical): 100%
- pest or weed control at 1.5 % (adult female mosquitoes; topical): 73%
- mortality at 0.5 % (adult female mosquitoes; topical): 97%
- mortality at 1.5 % (adult female mosquitoes; topical): 83%

Structure (SMILES): Cc1ccc(C(C)C)c(O)c1 [Thymol, reference compound]
- ED50 (adult, female mosquitoes; [1]): 1700 mg/kg

From patent US20200024246A1, “POGOSTONE DERIVATIVES AND METHODS OF USING THE SAME” (Hamyard Associates LLC, priority 2018, published 2020)
